These results are taken from patent US11325938B2, “CD73 inhibitors” (ORIC Pharmaceuticals, Inc., priority 2018, dated 2022).

Each structure is given as a SMILES string. pIC50: −log10 of the molar value. Some results are limits rather than exact numbers.

This experiment has as its target CD73 (Homo sapiens (Human), UniProt P21589). Description: Biochemical assay: inhibition of CD73 activity (AMP hydrolysis, Malachite Green readout). The conditions noted are these: CD73 0.3208 nM, AMP 15 μM, 25 mM Tris-HCl pH 7.4, RT, absorbance 620 nm. In a few lines: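 Human CD73 (320 pM final) preincubated 15 min at RT with compounds (10-point ½-log titration from 100 μM, duplicates) in 25 mM Tris-HCl pH 7.4, 5 mM MgCl2, 0.01% Brij-35, 0.01% BSA. 15 μM AMP added, 10 min at RT; released phosphate read by Malachite Green absorbance; IC50 determined.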

Sequence of CD73 (P21589 27-574): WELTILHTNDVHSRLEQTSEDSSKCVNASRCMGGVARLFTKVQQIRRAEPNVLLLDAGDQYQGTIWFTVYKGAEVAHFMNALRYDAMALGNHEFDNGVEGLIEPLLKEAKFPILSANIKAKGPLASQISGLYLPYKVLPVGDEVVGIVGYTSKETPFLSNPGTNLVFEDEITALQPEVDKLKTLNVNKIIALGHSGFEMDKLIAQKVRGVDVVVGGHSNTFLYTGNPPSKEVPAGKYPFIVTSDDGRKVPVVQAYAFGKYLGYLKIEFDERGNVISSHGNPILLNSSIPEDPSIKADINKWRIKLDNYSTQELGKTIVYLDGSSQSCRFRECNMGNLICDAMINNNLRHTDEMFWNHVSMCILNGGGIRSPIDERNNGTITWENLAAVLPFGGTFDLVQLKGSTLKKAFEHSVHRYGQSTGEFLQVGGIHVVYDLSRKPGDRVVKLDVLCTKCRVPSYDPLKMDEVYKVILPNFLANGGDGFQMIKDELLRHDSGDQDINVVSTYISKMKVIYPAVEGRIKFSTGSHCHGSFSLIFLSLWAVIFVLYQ

By pIC50 is commonly meant the IC50 on a negative log10 scale, so that one unit is a factor of ten. A high value points to a low IC50. In turn, `O=P(O)(O)C(CO)(Cc1ccccn1)OC[C@H]1O[C@@H](n2ncc3c(NC4CCCC4)nc(Cl)nc32)[C@H](O)[C@@H]1O` (stereo partly drawn) [Example 93, (2-(((2R,3S,4R,5R)-5-(6-chloro-4-(cyclopentylamino)-1H-pyrazolo[3,4-d]pyrimidin-1-yl)-3,4-dihydroxytetrahydrofuran-2-yl)methoxy)-1-hydroxy-3-(pyridin-2-yl)propan-2-yl)phosphonic acid] gave a pIC50 of at least 7.00.
In turn, `O=P(O)(O)[C@@](CO)(Cc1nn[nH]n1)OC[C@H]1O[C@@H](n2ncc3c(NC4CCCC4)nc(Cl)nc32)[C@H](O)[C@@H]1O` [Example 104, ((R)-2-(((2R,3S,4R,5R)-5-(6-chloro-4-(cyclopentylamino)-1H-pyrazolo[3,4-d]pyrimidin-1-yl)-3,4-dihydroxytetrahydrofuran-2-yl)methoxy)-1-hydroxy-3-(2H-tetrazol-5-yl)propan-2-yl)phosphonic acid] showed a negative-log IC50 (pIC50) of at least 7.00.
The same measure for `O=P(O)(O)C(COCCO)OC[C@H]1O[C@@H](n2ncc3c(NC4CCCC4)nc(Cl)nc32)[C@H](O)[C@@H]1O` (mixture of isomers) [Example 166, rac-(1-(((2R,3S,4R,5R)-5-(6-chloro-4-(cyclopentyalmino)-1H-pyrazolo[3,4-d]pyrimidin-1-yl)-3,4-dihydroxytetrahydrofuran-2-yl)methoxy)-2-(2-hydroxyethoxy)ethyl)phosphonic acid]: at least 7.00.
Consider `CC(CN1CCOCC1)(OC[C@H]1O[C@@H](n2ncc3c(NC4CCCC4)nc(Cl)nc32)[C@H](O)[C@@H]1O)P(=O)(O)O` (stereo partly drawn) [Example 71, (2-(((2R,3S,4R,5R)-5-(6-chloro-4-(cyclopentylamino)-1H-pyrazolo[3,4-d]pyrimidin-1-yl)-3,4-dihydroxytetrahydrofuran-2-yl)methoxy)-1-morpholinopropan-2-yl)phosphonic acid], for which the pIC50 was under 6.00.
In the case of `CCP(=O)(O)C(CO)(CO)OC[C@H]1O[C@@H](n2ncc3c(NC4CCCC4)nc(Cl)nc32)[C@H](O)[C@@H]1O` [Example 112, (2-(((2R,3S,4R,5R)-5-(6-chloro-4-(cyclopentylamino)-1H-pyrazolo[3,4-d]pyrimidin-1-yl)-3,4-dihydroxytetrahydrofuran-2-yl)methoxy)-1,3-dihydroxypropan-2-yl)(ethyl)phosphinic acid], the negative-log IC50 (pIC50) was 6.00 to 7.00.
In the case of `O=P(O)(O)[C@](CO)(Cc1nn[nH]n1)OC[C@H]1O[C@@H](n2ncc3c(NC4CCCC4)nc(Cl)nc32)[C@H](O)[C@@H]1O` [Example 103, ((S)-2-(((2R,3S,4R,5R)-5-(6-chloro-4-(cyclopentylamino)-1H-pyrazolo[3,4-d]pyrimidin-1-yl)-3,4-dihydroxytetrahydrofuran-2-yl)methoxy)-1-hydroxy-3-(2H-tetrazol-5-yl)propan-2-yl)phosphonic acid], the pIC50 is at least 7.00.
In turn, `O=P(O)(O)C(CO)OC[C@H]1O[C@@H](n2ncc3c(NC4CCCC4)cc(Cl)nc32)[C@H](O)[C@@H]1O` (stereo partly drawn) [Example 57, (1-(((2R,3S,4R,5R)-5-(6-Chloro-4-(cyclopentylamino)-1H-pyrazolo[3,4-b]pyridin-1-yl)-3,4-dihydroxytetrahydrofuran-2-yl)methoxy)-2-hydroxyethyl)phosphonic acid] had a negative logarithm of the IC50 (pIC50) of at least 7.00.
Compound `COCC(OC[C@H]1O[C@@H](n2cnc3c(NC4CCCC4)nc(Cl)nc32)[C@H](O)[C@@H]1O)P(=O)(O)O` (stereo partly drawn) [Example 160, (1-(((2R,3S,4R,5R)-5-(2-chloro-6-(cyclopentylamino)-9H-purin-9-yl)-3,4-dihydroxytetrahydrofuran-2-yl)methoxy)-2-methoxyethyl)phosphonic acid] showed a pIC50 of at least 7.00.
The compound `C[C@](CO)(OC[C@H]1O[C@@H](n2ncc3c(N[C@@H]4CCc5cc(F)ccc54)nc(Cl)nc32)[C@H](O)[C@@H]1O)P(=O)(O)O` [Example 121, ((S)-2-(((2R,3S,4R,5R)-5-(6-chloro-4-(((R)-5-fluoro-2,3-dihydro-1H-inden-1-yl)amino)-1H-pyrazolo[3,4-d]pyrimidin-1-yl)-3,4-dihydroxytetrahydrofuran-2-yl)methoxy)-1-hydroxypropan-2-yl)phosphonic acid] gave a negative-log IC50 (pIC50) of at least 7.00.
As for `C[C@](CO)(OC[C@H]1O[C@@H](n2ncc3c(NC4CC5(CCC5)C4)nc(Cl)nc32)[C@H](O)[C@@H]1O)P(=O)(O)O` [Example 123, ((S)-2-(((2R,3S,4R,5R)-5-(6-chloro-4-(spiro[3.3]heptan-2-ylamino)-1H-pyrazolo[3,4-d]pyrimidin-1-yl)-3,4-dihydroxytetrahydrofuran-2-yl)methoxy)-1-hydroxypropan-2-yl)phosphonic acid], the negative logarithm of the IC50 (pIC50) was at least 7.00.
`C[C@](CO)(OC[C@H]1O[C@@H](n2ncc3c(NC4CCCC4)nc(Cl)nc32)[C@H](O)[C@@H]1O)P(=O)(O)O` [Example 62, ((S)-2-(((2R,3S,4R,5R)-5-(6-chloro-4-(cyclopentylamino)-1H-pyrazolo[3,4-d]pyrimidin-1-yl)-3,4-dihydroxytetrahydrofuran-2-yl)methoxy)-1-hydroxypropan-2-yl)phosphonic acid]: the pIC50 was at least 7.00.
Compound `O=P(O)(O)[C@](CO)(Cc1ncco1)OC[C@H]1O[C@@H](n2ncc3c(NC4CCCC4)nc(Cl)nc32)[C@H](O)[C@@H]1O` [Example 92, ((S)-2-(((2R,3S,4R,5R)-5-(6-chloro-4-(cyclopentylamino)-1H-pyrazolo[3,4-d]pyrimidin-1-yl)-3,4-dihydroxytetrahydrofuran-2-yl)methoxy)-1-hydroxy-3-(oxazol-2-yl)propan-2-yl)phosphonic acid] had a pIC50 of at least 7.00.
With `C[C@](CO)(OC[C@H]1O[C@@H](n2ncc3c(NC4CCC4)nc(Cl)nc32)[C@H](O)[C@@H]1O)P(=O)(O)O` [Example 102, ((S)-2-(((2R,3S,4R,5R)-5-(6-chloro-4-(cyclobutylamino)-1H-pyrazolo[3,4-d]pyrimidin-1-yl)-3,4-dihydroxytetrahydrofuran-2-yl)methoxy)-1-hydroxypropan-2-yl)phosphonic acid], the negative-log IC50 (pIC50) is at least 7.00.
In turn, `O=P(O)(O)C(CO)(CO)OC[C@H]1O[C@@H](n2ncc3c(NC4CCCC4)cc(Cl)nc32)[C@H](O)[C@@H]1O` (racemic) [Example 200, rac-(2-(((2R,3S,4R,5R)-5-(6-chloro-4-(cyclopentylamino)-1H-pyrazolo[3,4-b]pyridin-1-yl)-3,4-dihydroxytetrahydrofuran-2-yl)methoxy)-1,3-dihydroxypropan-2-yl)phosphonic acid] had a negative-log IC50 (pIC50) of at least 7.00.
The same measure for `CC(CO)(OC[C@H]1O[C@@H](n2ncc3c(NC4CCCC4)nc(C#CCO)nc32)[C@H](O)[C@@H]1O)P(=O)(O)O` (stereo partly drawn) [Example 89, (2-(((2R,3S,4R,5R)-5-(4-(Cyclopentylamino)-6-(3-hydroxyprop-1-yn-1-yl)-1H-pyrazolo[3,4-d]pyrimidin-1-yl)-3,4-dihydroxytetrahydrofuran-2-yl)methoxy)-1-hydroxypropan-2-yl)phosphonic acid]: at least 7.00; for `COCCOCC(COCCO)(OC[C@H]1O[C@@H](n2ncc3c(NC4CCCC4)nc(Cl)nc32)[C@H](O)[C@@H]1O)P(=O)(O)O` (mixture of isomers) [Example 177, rac-(2-(((2R,3S,4R,5R)-5-(6-chloro-4-(cyclopentylamino)-1H-pyrazolo[3,4-d]pyrimidin-1-yl)-3,4-dihydroxytetrahydrofuran-2-yl)methoxy)-1-(2-hydroxyethoxy)-3-(2-methoxyethoxy)propan-2-yl)phosphonic acid]: at least 7.00.
